Test results from ChEMBL document CHEMBL3886143, “(Hetero)aryl cyclopropylamine compounds as LSD1 inhibitors” (2016).

Target: T1, Amine oxidase [flavin-containing] A (Homo sapiens, UniProt P21397)
T1 sequence (P21397 whole entry): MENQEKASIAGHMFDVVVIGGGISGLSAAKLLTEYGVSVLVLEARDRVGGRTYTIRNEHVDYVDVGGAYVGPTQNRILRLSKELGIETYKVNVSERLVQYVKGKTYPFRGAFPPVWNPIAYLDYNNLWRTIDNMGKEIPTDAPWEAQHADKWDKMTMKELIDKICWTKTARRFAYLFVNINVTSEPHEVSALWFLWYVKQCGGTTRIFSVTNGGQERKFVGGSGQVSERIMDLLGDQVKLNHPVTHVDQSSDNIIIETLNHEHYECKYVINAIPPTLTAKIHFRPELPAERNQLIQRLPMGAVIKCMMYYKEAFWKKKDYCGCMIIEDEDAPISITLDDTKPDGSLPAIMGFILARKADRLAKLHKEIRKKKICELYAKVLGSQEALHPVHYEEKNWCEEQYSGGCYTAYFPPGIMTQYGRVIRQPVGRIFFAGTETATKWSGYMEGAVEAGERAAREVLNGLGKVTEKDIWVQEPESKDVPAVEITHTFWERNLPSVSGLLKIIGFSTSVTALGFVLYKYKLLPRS
Assay: Fluorescence-Based (Inhibitor)-Screening Assay: In order to monitor MAO enzymatic activities and/or their inhibition rate by inhibitor(s) of interest, a fluorescence-based (inhibitor)-screening assay was set up. 3-(2-Aminophenyl)-3-oxopropanamine (kynuramine dihydrobromide, Sigma Aldrich), a non fluorescent compound was chosen as a substrate. Kynuramine is a non-specific substrate for both MAO-A and MAO-B activities. While undergoing oxidative deamination by MAO activities, kynuramine is converted into 4-hydroxyquinoline (4-HQ), a resulting fluorescent product.The monoamine oxidase activity was estimated by measuring the conversion of kynuramine into 4-hydroxyquinoline. Assays were conducted in 96-well black plates with clear bottom (Corning) in a final volume of 100 uL. The assay buffer was 100 mM HEPES, pH 7.5. […] Clorgyline and Deprenyl (Sigma Aldrich) was used as a control for specific inhibition of MAO-A and MAO-B respectively. After leaving the enzyme(s) interacting with the inhibitor, KM of kynuramine was added to each reaction for MAO-B and MAO-A assay respectively, and the reaction was left for 1 hour at 37° C. in the dark. The oxidative deamination of the substrate was stopped by adding 50 uL of NaOH 2N. […] The IC50 values of each inhibitor were calculated with GraphPad Prism Software.

With `N[C@H]1CC[C@H](N[C@@H]2C[C@H]2c2ccccc2)CC1` as the molecule, how does the Ki read?
The Ki was greater than 40 µM.
